Consider 26 molecules from patent US9546168B2, “ERK inhibitors” (Merck Sharp & Dohme Corp., priority 2013, dated 2017).

One may read the IC50 as the concentration at which inhibition is half-maximal. A low value points to inhibition by little substance.

For the assay, the target named is phosphorylated active hERK2 enzyme (Homo sapiens (Human), UniProt P28482). Briefly: Active Human ERK2 (hERK2) Activity Assay (IMAP-FP). In kind it is biochemical. To be noted: 0.5 nM hERK2, 30 μM ATP, 10 point titration. As to the method:
Active Human ERK2 (hERK2) Activity Assay:
Activated ERK2 activity was determined in an IMAP-FP assay (Molecular Devices). Using this assay format, the potency (IC50) of each compound was determined from a 10 point (1:3 serial dilution, 3 μM starting compound concentration) titration curve using the following outlined procedure. […] Following a 15 minute compound & enzyme incubation, each reaction was initiated by the addition of 10 μL kinase buffer containing 2.45 μM ERK2 IMAP substrate peptides and 75 μM ATP. The final reaction in each well of 25 μL consists of 0.5 nM hERK2, 900 nM unlabeled peptide, 80 nM labeled-peptide, and 30 μM ATP. Phosphorylation reactions were allowed to proceed for 60 minutes and were immediately quenched by the addition of 60 μL IMAP detection beads (1:1000 dilutions) in IMAP binding buffer (Molecular Devices) with 24 mM NaCl. Plates were read on EnVision reader after 60 minutes binding equilibration using Fluorescence Polarization protocol (Perkin Elmer).

Chain of phosphorylated active hERK2 enzyme (P28482 whole entry): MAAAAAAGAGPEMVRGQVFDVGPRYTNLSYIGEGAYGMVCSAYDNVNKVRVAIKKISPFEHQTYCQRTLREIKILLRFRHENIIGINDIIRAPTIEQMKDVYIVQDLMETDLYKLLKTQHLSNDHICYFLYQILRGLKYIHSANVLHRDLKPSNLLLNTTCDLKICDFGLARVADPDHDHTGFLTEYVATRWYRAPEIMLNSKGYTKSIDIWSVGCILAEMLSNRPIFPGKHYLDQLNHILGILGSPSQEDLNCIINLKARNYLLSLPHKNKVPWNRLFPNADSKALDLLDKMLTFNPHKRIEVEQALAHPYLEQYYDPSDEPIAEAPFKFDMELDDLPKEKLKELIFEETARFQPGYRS

On to `CC(C)(O)[C@@H](NC(=O)Nc1cc2[nH]nc(C(F)F)c2c(CO)n1)c1ccccc1` [Example 22, (S)-1-(3-(difluoromethyl)-4-(hydroxymethyl)-1H-pyrazolo[4,3-c]pyridin-6-yl)-3-(2-hydroxy-2-methyl-1-phenylpropyl)urea], for which half-maximal inhibition (IC50) was put at 0.75 nM.

In turn, `CC(C)(O)[C@@H](NC(=O)Nc1cc2[nH]nc(C3CC3)c2c(CO)n1)c1ccccc1` [Example 6, 1-[3-cyclopropyl-4-(hydroxymethyl)-1H-pyrazolo[4,3-c]pyridin-6-yl]-3-[(1S)-2-hydroxy-2-methyl-1-phenylpropyl]urea] had an IC50 of 4.34 nM.

The molecule `C[C@@H](NC(=O)Nc1cc2[nH]nc(-c3ccnc(C#N)c3)c2c(CO)n1)c1ccccc1` [Example 12, 1-[3-(2-cyanopyridin-4-yl)-4-(hydroxymethyl)-1H-pyrazolo[4,3-c]pyridin-6-yl]-3-[(1R)-1-phenylethyl]urea] yielded an IC50 of 1.64 nM.

`CC(C)(O)[C@@H](NC(=O)Nc1cc2[nH]nc(C(F)F)c2c(CO)n1)c1ccc(F)cc1` [Example 23, 1-[3-(difluoromethyl)-4-(hydroxymethyl)-1H-pyrazolo[4,3-c]pyridin-6-yl]-3-[(1S)-1-(4-fluorophenyl)-2-hydroxy-2-methylpropyl]urea] displayed an IC50 of 0.49 nM.

Consider `CC(C)(O)[C@@H](NC(=O)Nc1cc2[nH]nc(-c3ccc(C#N)cc3)c2c(CO)n1)c1ccccc1` [Example 19, 1-[3-(4-cyanophenyl)-4-(hydroxymethyl)-1H-pyrazolo[4,3-c]pyridin-6-yl]-3-[(1S)-2-hydroxy-2-methyl-1-phenylpropyl]urea], for which the IC50 stood at 0.53 nM.

On to `CC(C)(O)[C@@H](NC(=O)Nc1cc2[nH]nc(-c3ccc(F)cc3)c2c(CO)n1)c1ccc(F)cc1` [Example 15, 1-[(1S)-1-(4-fluorophenyl)-2-hydroxy-2-methylpropyl]-3-[3-(4-fluorophenyl)-4-(hydroxymethyl)-1H-pyrazolo[4,3-c]pyridin-6-yl]urea], for which half-maximal inhibition (IC50) was put at 0.29 nM.

`Cc1cc(-c2n[nH]c3cc(NC(=O)N[C@H](C)c4ccccc4)nc(CO)c23)ccn1` [Example 4, (R)-1-(4-(hydroxymethyl)-3-(2-methylpyridin-4-yl)-1H-pyrazolo[4,3-c]pyridin-6-yl)-3-(1-phenylethyl)urea] registered an IC50 of 0.39 nM.

The molecule `C[C@@H](NC(=O)Nc1cc2[nH]nc(C(F)(F)F)c2c(CO)n1)c1ccccc1` [Example 29, (R)-1-(4-(hydroxymethyl)-3-(trifluoromethyl)-1H-pyrazolo[4,3-c]pyridin-6-yl)-3-(1-phenylethyl)urea] registered an IC50 of 13.2 nM.

As to `Cc1nc(NC(=O)N[C@H](C)c2ccccc2)cc2[nH]nc(-c3ccnc(F)c3)c12` [Example 2, 1-[3-(2-fluoropyridin-4-yl)-4-methyl-1H-pyrazolo[4,3-c]pyridin-6-yl]-3-[(1R)-1-phenylethyl]urea], 1.24 nM corresponded to half-maximal inhibition (IC50).

For `C[C@@H](NC(=O)Nc1cc2[nH]nc(-c3ccnc(F)c3)c2c(CO)n1)c1ccccc1` [Example 3, (R)-1-(3-(2-fluoropyridin-4-yl)-4-(hydroxymethyl)-1H-pyrazolo[4,3-c]pyridin-6-yl)-3-(1-phenylethyl)urea], the IC50 is 0.92 nM.

`C[C@@H](NC(=O)Nc1cc2[nH]nc(C3CC3)c2c(CO)n1)c1ccccc1` [Example 5, (R)-1-(3-cyclopropyl-4-(hydroxymethyl)-1H-pyrazolo[4,3-c]pyridin-6-yl)-3-(1-phenylethyl)urea] registered an IC50 of 0.72 nM.

Take `Cc1cc(-c2n[nH]c3cc(NC(=O)N[C@H](COC(F)F)c4ccccc4)nc(CO)c23)ccn1` [Example 10, 1-[(1S)-2-(difluoromethoxy)-1-phenylethyl]-3-[4-(hydroxymethyl)-3-(2-methylpyridin-4-yl)-1H-pyrazolo[4,3-c]pyridin-6-yl]urea]: it took 0.66 nM to reach half-maximal inhibition (IC50).

Turning to `CC(=O)c1n[nH]c2cc(NC(=O)N[C@H](C)c3ccccc3)nc(CO)c12` [Example 26, (R)-1-(3-acetyl-4-(hydroxymethyl)-1H-pyrazolo[4,3-c]pyridin-6-yl)-3-(1-phenylethyl)urea], half-maximal inhibition (IC50) was put at 12.7 nM.

`COCc1nc(NC(=O)N[C@H](C)c2ccccc2)cc2[nH]nc(-c3ccnc(C)c3)c12` [Example 20, (R)-1-(4-(Methoxymethyl)-3-(2-methylpyridin-4-yl)-1H-pyrazolo[4,3-c]pyridin-6-yl)-3-(1-phenylethyl)urea]: the IC50 was 1.13 nM.

`C[C@@H](O)[C@@H](NC(=O)Nc1cc2[nH]nc(C3CC3)c2c(CO)n1)c1ccccc1` [Example 9, 1-[3-cyclopropyl-4-(hydroxymethyl)-1H-pyrazolo[4,3-c]pyridin-6-yl]-3-[(1S,2R)-2-hydroxy-1-phenylpropyl]urea]: half-maximal inhibition (IC50) was put at 0.75 nM.

The molecule `C[C@@H](NC(=O)Nc1cc2[nH]nc(-c3ccc(F)cc3)c2c(CO)n1)c1ccccc1` [Example 11, 1-[3-(4-fluorophenyl)-4-(hydroxymethyl)-1H-pyrazolo[4,3-c]pyridin-6-yl]-3-[(1R)-1-phenylethyl]urea] returned an IC50 of 0.45 nM.

In turn, `C[C@@H](NC(=O)Nc1cc2[nH]nc(C(F)F)c2c(CO)n1)c1ccccc1` [Example 24, 1-[3-(difluoromethyl)-4-(hydroxymethyl)-1H-pyrazolo[4,3-c]pyridin-6-yl]-3-[(1R)-1-phenylethyl]urea] came in with an IC50 of 1.25 nM.

In the case of `CC(O)c1n[nH]c2cc(NC(=O)N[C@H](C)c3ccccc3)nc(CO)c12` (stereo partly drawn) [Example 27, 1-(3-(1-hydroxyethyl)-4-(hydroxymethyl)-1H-pyrazolo[4,3-c]pyridin-6-yl)-3-((R)-1-phenylethyl)urea], the IC50 amounted to 5.52 nM.

With `CC(C)(O)[C@@H](NC(=O)Nc1cc2[nH]nc(-c3ccc(F)cc3)c2c(CO)n1)c1ccccc1` [Example 13, 1-[3-(4-fluorophenyl)-4-(hydroxymethyl)-1H-pyrazolo[4,3-c]pyridin-6-yl]-3-[(1S)-2-hydroxy-2-methyl-1-phenylpropyl]urea], the IC50 stood at 0.31 nM.

Take `Cc1nc(NC(=O)N[C@@H](c2ccccc2)C(C)(C)O)cc2[nH]nc(C(F)F)c12` [Example 21, (S)-1-(3-(difluoromethyl)-4-methyl-1H-pyrazolo[4,3-c]pyridin-6-yl)-3-(2-hydroxy-2-methyl-1-phenylpropyl)urea]: the IC50 was 0.61 nM.

In turn, `C[C@@H](NC(=O)Nc1cc2[nH]nc(CO)c2c(CO)n1)c1ccccc1` [Example 25, (R)-1-(3,4-bis(hydroxymethyl)-1H-pyrazolo[4,3-c]pyridin-6-yl)-3-(1-phenylethyl)urea] came in with an IC50 of 1.85 nM.

For `Cc1cc(-c2n[nH]c3cc(NC(=O)N[C@H](C)c4ccccc4)nc(C)c23)ccn1` [Example 1, (R)-1-(4-Methyl-3-(2-methylpyridin-4-yl)-1H-pyrazolo[4,3-c]pyridin-6-yl)-3-(1-phenylethyl)urea], the IC50 stood at 0.37 nM.

`CC(C)(O)[C@@H](NC(=O)Nc1cc2[nH]nc(-c3ccccc3)c2c(CO)n1)c1ccccc1` [Example 18, 1-[(1S)-2-hydroxy-2-methyl-1-phenylpropyl]-3-[4-(hydroxymethyl)-3-phenyl-1H-pyrazolo[4,3-c]pyridin-6-yl]urea] yielded an IC50 of 0.37 nM.

`CC(F)(F)c1n[nH]c2cc(NC(=O)N[C@@H](c3ccccc3)C(C)(C)O)nc(CO)c12` [Example 28, (S)-1-(3-(1,1-difluoroethyl)-4-(hydroxymethyl)-1H-pyrazolo[4,3-c]pyridin-6-yl)-3-(2-hydroxy-2-methyl-1-phenylpropyl)urea] displayed an IC50 of 14.1 nM.

Take `CC(C)(O)[C@@H](NC(=O)Nc1cc2[nH]nc(C3CC3)c2c(CO)n1)c1ccc(F)cc1` [Example 7, 1-[3-cyclopropyl-4-(hydroxymethyl)-1H-pyrazolo[4,3-c]pyridin-6-yl]-3-[(1S)-1-(4-fluorophenyl)-2-hydroxy-2-methylpropyl]urea]: the IC50 came out at 0.83 nM.

For the molecule `CC(C)(C)[C@@H](NC(=O)Nc1cc2[nH]nc(-c3ccc(F)cc3)c2c(CO)n1)c1ccccc1` [Example 17, 1-[(1R)-2,2-dimethyl-1-phenylpropyl]-3-[3-(4-fluorophenyl)-4-(hydroxymethyl)-1H-pyrazolo[4,3-c]pyridin-6-yl]urea], the IC50 is 8.64 nM.
